Results on 17 compounds are retold here after US11332443B2, “Derivatives of halo quinabactin” (THE REGENTS OF THE UNIVERSITY OF CALIFORNIA, priority 2015, dated 2022).

Holding throughout (assay type): biochemical
In one experiment the target is T1, PYL2-HAB1 (Arabidopsis thaliana, UniProt O80992).
T1 construct: 6xHis (N); made in house; host or cells: E. coli BL21[DE3]pLysS (stated for GST-HAB1)
T1 sequence (O80992 1-190): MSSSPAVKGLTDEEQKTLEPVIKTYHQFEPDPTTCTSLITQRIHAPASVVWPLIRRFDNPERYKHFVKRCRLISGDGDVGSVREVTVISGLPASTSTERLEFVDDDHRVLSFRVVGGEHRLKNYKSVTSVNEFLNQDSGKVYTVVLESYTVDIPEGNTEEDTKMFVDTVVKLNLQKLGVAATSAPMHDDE
T1 sequence (Q9CAJ0 23-511 partner): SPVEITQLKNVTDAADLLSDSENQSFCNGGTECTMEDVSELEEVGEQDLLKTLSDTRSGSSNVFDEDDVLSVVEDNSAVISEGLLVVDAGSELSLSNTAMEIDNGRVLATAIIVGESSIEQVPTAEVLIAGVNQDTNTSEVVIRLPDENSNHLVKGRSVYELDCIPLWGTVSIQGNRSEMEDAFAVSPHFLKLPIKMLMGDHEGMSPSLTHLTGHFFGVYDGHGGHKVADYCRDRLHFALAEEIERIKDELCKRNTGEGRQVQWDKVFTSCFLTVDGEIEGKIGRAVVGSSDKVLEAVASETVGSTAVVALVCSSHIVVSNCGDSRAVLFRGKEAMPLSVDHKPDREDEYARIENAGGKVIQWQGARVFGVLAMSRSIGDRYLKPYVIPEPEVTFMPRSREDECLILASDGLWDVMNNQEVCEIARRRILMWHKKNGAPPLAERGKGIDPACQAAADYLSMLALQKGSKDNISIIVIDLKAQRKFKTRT
The experiment can be described thus: PP2C activity assay, PYL2-HAB1 inhibition. The following applies: for percent inhibition at 0.2 µM: 200 nM test compound, 100 nM HAB1 PP2C, 200 nM receptor, read-out: % Inhibition of PYR/PYL-HAB1 at 200 nM: PYL2; for IC50: dose response in triplicate, non-linear regression. The text has this: (§1) The protein HAB1, a type 2 protein phosphatase (PP2C), is inhibited by PYR/PYL proteins in dependence of abscisic acid or other agonists. The potency of an agonist correlates with the level of inhibition of the PP2C, and therefore the IC50 (receptor-HAB1) can be used to compare the relative activity of different chemical analogues. Since inhibition of PP2C correlates to inhibition of seed-germination and increase in plant water-use efficiency, it serves as a powerful tool to quantify biological potential of a chemical acting as an analogue of abscisic acid.
(§2) HAB1 and PYL proteins were expressed and purified as described in Park et al. ((2009) Science 324(5930):1068-1071), with minor modifications. GST-HAB1 was produced by expression in BL21[DE3]pLysS host cells with an expression clone containing the HAB1 cDNA cloned into pGex-2T. Transformed E. coli cells were pre-cultured overnight, transferred to LB medium and cultured at 30° C. to culture A600 of ˜0.5 OD units. The culture was then cooled on ice and MnCl2 added to 4 mM and IPTG added to 0.3 mM. After 16 hours incubation at 15° C., cells were harvested and recombinant proteins were purified on glutathione agarose as described in Park et al. To obtain 6×His-PYL receptor fusion proteins, we used expression constructs previously described by Okamoto et al. 2013, (PNAS 110(29): 12132-12137).
(§3) PP2C activity assays using recombinant receptors and PP2Cs were carried out as follows: purified proteins were pre-incubated in 160 μl assay buffer containing (100 mM Tris-HCl-pH7.9, 100 mM NaCl, 3 μg bovine serum albumin and 0.1% 2-mercaptoethanol), 1 mM MnCl2 with carrier solvent (DMSO), quinabactin or quinabactin analogs (compounds of the present invention) for 30 minutes at room temperature. Reactions were started by adding 40 μL of a reaction solution containing 25 mM 4-nitrophenyl phosphate in assay buffer, after which absorbance measurements were immediately collected (405 nm) using a Wallac plate reader. […] Inhibition is indicated by reduced PP2C activity, which is expressed as a percentage of the control PP2C activity values that were obtained from assays containing carrier solvent instead but no test compound.

For another experiment, the target named is T2, PYR1-HAB1 (Arabidopsis thaliana, UniProt O49686).
T2 construct: 6xHis (N); made in house; host or cells: E. coli BL21[DE3]pLysS (stated for GST-HAB1)
T2 sequence (O49686 1-191): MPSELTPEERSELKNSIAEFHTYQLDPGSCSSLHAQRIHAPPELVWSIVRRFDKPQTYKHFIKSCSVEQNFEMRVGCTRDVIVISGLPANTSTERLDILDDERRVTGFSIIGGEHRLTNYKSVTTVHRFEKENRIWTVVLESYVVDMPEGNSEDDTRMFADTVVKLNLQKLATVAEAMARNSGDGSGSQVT
T2 sequence (Q9CAJ0 23-511 partner): T1 sequence (Q9CAJ0 23-511 partner)
The experiment can be described thus: PP2C activity assay, PYR1-HAB1 inhibition. The following applies: for activity at 0.2 µM: 200 nM test compound, 100 nM HAB1 PP2C, 200 nM receptor, read-out: % Inhibition of PYR/PYL-HAB1 at 200 nM: PYR1; for IC50: dose response in triplicate, non-linear regression.
From the text: as §1, §2, §3

The target of the next experiment is T3, PYL1-HAB1 (Arabidopsis thaliana, UniProt Q8VZS8).
T3 construct: 6xHis (N); made in house; host or cells: E. coli BL21[DE3]pLysS (stated for GST-HAB1)
T3 sequence (Q8VZS8 1-221): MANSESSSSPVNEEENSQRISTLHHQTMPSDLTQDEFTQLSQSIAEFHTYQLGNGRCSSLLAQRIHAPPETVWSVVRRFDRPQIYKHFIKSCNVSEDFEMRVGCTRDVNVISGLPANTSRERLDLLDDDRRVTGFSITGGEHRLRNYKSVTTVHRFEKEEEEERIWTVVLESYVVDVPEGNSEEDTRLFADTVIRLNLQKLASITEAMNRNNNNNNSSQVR
T3 sequence (Q9CAJ0 23-511 partner): T1 sequence (Q9CAJ0 23-511 partner)
Kind of experiment: PP2C activity assay, PYL1-HAB1 inhibition. Particulars: 200 nM test compound, 100 nM HAB1 PP2C, 200 nM receptor; read-out: % Inhibition of PYR/PYL-HAB1 at 200 nM: PYL1.
From the text: as §1, §2
PP2C activity assays using recombinant receptors and PP2Cs were carried out as follows: purified proteins were pre-incubated in 160 μl assay buffer containing (100 mM Tris-HCl-pH7.9, 100 mM NaCl, 3 μg bovine serum albumin and 0.1% 2-mercaptoethanol), 1 mM MnCl2 with carrier solvent (DMSO), quinabactin or quinabactin analogs (compounds of the present invention) for 30 minutes at room temperature. Reactions were started by adding 40 μL of a reaction solution containing 25 mM 4-nitrophenyl phosphate in assay buffer, after which absorbance measurements were immediately collected (405 nm) using a Wallac plate reader. Reactions contained 100 nM HAB1 PP2C and 200 nM receptor and 200 nM test compound. Inhibition is indicated by reduced PP2C activity, which is expressed as a percentage of the control PP2C activity values that were obtained from assays containing carrier solvent instead but no test compound.

As for `CCCN1C(=O)CCc2cc(NS(=O)(=O)Cc3ccccc3F)cc(F)c21` [HQ3], on PYL2-HAB1, the percent inhibition at 0.2 µM turned out to be 78.3%. Besides, the values for the activity at 0.2 µM on PYR1-HAB1 and at PYL1-HAB1 were 65.7% and 46.7%, respectively.
`CCCN1C(=O)CCc2cc(NS(=O)(=O)Cc3ccc(F)cc3F)cc(F)c21` [HQ4]: the percent inhibition at 0.2 µM at PYL2-HAB1 turned out to be 69.3%. The activity at 0.2 µM is 61.5% at PYR1-HAB1 and 46.1% on PYL1-HAB1.
In the case of `CCCN1C(=O)CCc2cc(NS(=O)(=O)Cc3ccc(Br)cc3F)cc(F)c21` [HQ5], the percent inhibition at 0.2 µM on PYL2-HAB1 was 51.8%. Also, the activity at 0.2 µM was 42.9% on PYR1-HAB1 and 18.2% on PYL1-HAB1.
With `CCCN1C(=O)CCc2cc(NS(=O)(=O)Cc3cc(F)ccc3F)cc(F)c21` [HQ6], at PYL2-HAB1, the percent inhibition at 0.2 µM turned out to be 57.4%. In addition, the activity at 0.2 µM on PYR1-HAB1 was 57.9%; at PYL1-HAB1, 35.1%.
For the compound `CCCN1C(=O)CCc2cc(NS(=O)(=O)Cc3cccc(F)c3F)cc(F)c21` [HQ7], the percent inhibition at 0.2 µM on PYL2-HAB1 was determined as 67.4%. Also, the activity at 0.2 µM on PYR1-HAB1 turned out to be 53.9%; at PYL1-HAB1, 31%.
On to `CCCN1C(=O)CCc2cc(NS(=O)(=O)Cc3ccc(F)cc3Br)cc(F)c21` [HQ8], for which the percent inhibition at 0.2 µM on PYL2-HAB1 amounted to 92%. Further, the activity at 0.2 µM on PYR1-HAB1 is 107%; at PYL1-HAB1, 87.4%.
The corresponding values for `CCCN1C(=O)CCc2cc(NS(=O)(=O)Cc3ccc(Cl)cc3Br)cc(F)c21` [HQ9] are 92.2%, 105% and 86.9%.
The corresponding values for `CCCN1C(=O)CCc2cc(NS(=O)(=O)Cc3ccc(C#N)cc3)cc(F)c21` [HQ10] are 77.2%, 39.8% and 44.3%.
The term IC50 denotes the concentration needed to halve the response being measured. Higher therefore signals a need for much substance. Take `CCCN1C(=O)CCc2cc(NS(=O)(=O)Cc3ccc(C#N)cc3F)cc(F)c21` [HQ11]: on PYL2-HAB1, the percent inhibition at 0.2 µM came out at 73.5% and half-maximal inhibition (IC50) was put at 317 nM. At PYR1-HAB1, the activity at 0.2 µM amounted to 28.8% and the IC50 turned out to be 61.2 nM. At PYL1-HAB1, the activity at 0.2 µM is 27.9%.
On to `CCCN1C(=O)CCc2cc(NS(=O)(=O)Cc3ccccc3C#N)cc(F)c21` [HQ12], for which the percent inhibition at 0.2 µM on PYL2-HAB1 came to 94.5%. Besides, the results for the activity at 0.2 µM on PYR1-HAB1 and at PYL1-HAB1 were 106% and 82.4%, respectively.
As to `CCCN1C(=O)CCc2cc(NS(=O)(=O)Cc3ccc(F)cc3Cl)cc(F)c21` [HQ13], the percent inhibition at 0.2 µM at PYL2-HAB1 turned out to be 94.1%. The activity at 0.2 µM on PYR1-HAB1 came to 110%; at PYL1-HAB1, 88.2%.
With `CCCN1C(=O)CCc2cc(NS(=O)(=O)Cc3ccc(C(=O)OC)cc3)cc(F)c21` [HQ14], the percent inhibition at 0.2 µM at PYL2-HAB1 is 91.8%. For the same compound, the activity at 0.2 µM at PYR1-HAB1 was determined as 62.6%; on PYL1-HAB1, 78.9%.
For the compound `CCCN1C(=O)CCc2cc(NS(=O)(=O)Cc3ccc(OC(F)(F)F)cc3)cc(F)c21` [HQ15], the percent inhibition at 0.2 µM on PYL2-HAB1 amounted to 70.1%. Moreover, the activity at 0.2 µM is 54.8% at PYR1-HAB1 and 47.6% at PYL1-HAB1.
In the case of `CCCN1C(=O)CCc2cc(NS(=O)(=O)Cc3ccc(C(F)(F)F)cc3)cc(F)c21` [HQ16], the percent inhibition at 0.2 µM on PYL2-HAB1 was 53.9%. Also, the activity at 0.2 µM on PYR1-HAB1 turned out to be 52%; on PYL1-HAB1, 38.5%.
The corresponding values for `CCCN1C(=O)CCc2cc(NS(=O)(=O)Cc3cccc(C(F)(F)F)c3)cc(F)c21` [HQ17] are 88.2%, 104% and 88.1%.
For `CCCN1C(=O)CCc2cc(NS(=O)(=O)Cc3ccc(Cl)cc3)cc(F)c21` [HQ18], the percent inhibition at 0.2 µM at PYL2-HAB1 came to 46.7%. The values for the concentration for half-maximal inhibition (IC50) against PYL2-HAB1 and against PYR1-HAB1 were 102 nM and 63.3 nM, respectively. In addition, the activity at 0.2 µM on PYR1-HAB1 stood at 35%; at PYL1-HAB1, 34.2%.
For the compound `CCCN1C(=O)CCc2cc(NS(=O)(=O)Cc3ccc(C(F)(F)F)nc3)cc(F)c21` [HQ19], the percent inhibition at 0.2 µM on PYL2-HAB1 stood at 82.3%. Moreover, the activity at 0.2 µM on PYR1-HAB1 was determined as 82.7%; on PYL1-HAB1, 73.4%.
